Experimental data from patent publication US8895547B2, “Substituted phenyl-oxathiazine derivatives, method for producing them, drugs containing said compounds and the use thereof” (Sanofi, priority 2011, dated 2014).
pIC50: −log10 of the molar value.

Target: T1, human 11β-HSD1 (Homo sapiens, UniProt P28845)
T1 construct: host or cells: microsome fraction
Assay: Enzymatic 11beta-HSD1 test (SPA-based detection)
Format: biochemical
Details: human 11β-HSD1 microsome fraction, [1,2-3H]-cortisone, NADPH, 37° C. 1 hour
Outline: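 Scintillation proximity detection: anti-cortisol antibody on SPA-PVT beads captured tritiated cortisol. The stop mix also contained 0.01 mM SSR110887 and was equilibrated 1 h at room temperature before counting. Cortisol came from [1,2-3H]-cortisone ([…]), turned over by human 11β-HSD1 microsomal protein (0.2 µg) with 0.25 mM NADPH in HEPES buffer, 37 °C, 1 h.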

T1 sequence (P28845 whole entry): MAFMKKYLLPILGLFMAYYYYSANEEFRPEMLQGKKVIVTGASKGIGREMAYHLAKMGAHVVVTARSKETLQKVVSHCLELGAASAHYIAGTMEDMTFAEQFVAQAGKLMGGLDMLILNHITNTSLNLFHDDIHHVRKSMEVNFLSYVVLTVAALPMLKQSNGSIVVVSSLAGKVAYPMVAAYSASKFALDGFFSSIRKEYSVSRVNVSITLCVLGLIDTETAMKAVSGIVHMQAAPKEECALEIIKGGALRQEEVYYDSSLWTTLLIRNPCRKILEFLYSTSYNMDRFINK

| SMILES | pIC50 |
| --- | --- |
| CC1(C)OC(N[C@@H](CCO)c2ccccc2)=NS(=O)(=O)C1c1ccc(-c2ccccc2)cc1 (stereo partly drawn) [Example 12, (S)-3-(5-Biphenyl-4-yl-6,6-dimethyl-4,4-dioxo-5,6-dihydro-4H-4lambda6-[1,4,3]oxathiazin-2-ylamino)-3-phenyl-propan-1-ol] | 7.35 |
| CC1(C)OC(N[C@@H](CCO)c2ccccc2)=NS(=O)(=O)C1c1ccccc1Cl (stereo partly drawn) [Example 15, (S)-3-[5-(2-Chlorophenyl)-6,6-dimethyl-4,4-dioxo-5,6-dihydro-4H-4lambda6-[1,4,3]oxathiazin-2-ylamino]-3-phenyl-propan-1-ol] | 7.96 |
| COc1ccc(C2C(C)(C)OC(N[C@@H](CCO)c3ccccc3)=NS2(=O)=O)cc1 (stereo partly drawn) [Example 6, (S)-3-[5-(4-Methoxy-phenyl)-6,6-dimethyl-4,4-dioxo-5,6-dihydro-4H-4lambda6-[1,4,3]oxathiazin-2-ylamino]-3-phenyl-propan-1-ol] | 7.54 |
| CC1(C)OC(N[C@@H](CCO)c2ccccc2F)=NS(=O)(=O)C1(C)c1cccc(N2CCCC2)c1 (stereo partly drawn) [Compound 45, (S)-3-(2-Fluorophenyl)-3-[5,6,6-trimethyl-4,4-dioxo-5-(3-pyrrolidin-1-ylphenyl)-5,6-dihydro-4H-4lambda6-[1,4,3]oxathiazin-2-ylamino]propan-1-ol] | 7.96 |
| CC1(C)OC(NC2CCCCC2)=NS(=O)(=O)C1c1cccc(Br)c1 (stereo not drawn) [Example 13, [5-(3-Bromophenyl)-6,6-dimethyl-4,4-dioxo-5,6-dihydro-4H-4lambda6-[1,4,3]oxathiazin-2-yl]-cyclohexyl-amine] | 7.33 |
| C[C@H](NC1=NS(=O)(=O)C(c2ccc(N3CCNCC3)cc2)C(C)(C)O1)c1ccccc1F (stereo partly drawn) [Example 167, [6,6-Dimethyl-4,4-dioxo-5-(4-piperazin-1-yl-phenyl)-5,6-dihydro-4H-4lambda6-[1,4,3]oxathiazin-2-yl]-[(S)-1-(2-fluorophenyl)-ethyl]-amine] | 6.91 |
| CC1(C)OC(N[C@@H](CCO)c2ccccc2F)=NS(=O)(=O)[C@@H]1c1ccc(-c2cccc(C(N)=O)c2)cc1 [Example 150, 4′-{(R)-2-[(S)-1-(2-fluorophenyl)-3-hydroxy-propylamino]-6,6-dimethyl-4,4-dioxo-5,6-dihydro-4H-4lambda6-[1,4,3]oxathiazin-5-yl}-biphenyl-3-carboxamide] | 8.52 |
| C[C@H](NC1=NS(=O)(=O)C(c2ccc(-c3cnc(N)nc3)cc2)C(C)(C)O1)c1ccccc1F (stereo partly drawn) [Example 196, {5-[4-(2-Amino-pyrimidin-5-yl)-phenyl]-6,6-dimethyl-4,4-dioxo-5,6-dihydro-4H-4lambda6-[1,4,3]oxathiazin-2-yl}-[(S)-1-(2-fluorophenyl)-ethyl]-amine] | 8.15 |
| CC(C)(C)c1ccc(C2(C)C(C)(C)OC(N[C@@H](CCO)c3ccccc3)=NS2(=O)=O)cc1 (stereo partly drawn) [Compound 62, (S)-3-[5-(4-tert-Butylphenyl)-5,6,6-trimethyl-4,4-dioxo-5,6-dihydro-4H-4lambda6-[1,4,3]oxathiazin-2-ylamino]-3-phenylpropan-1-ol] | 7.33 |
| CC1(C)OC(N[C@@H](CCO)c2ccccc2)=NS(=O)(=O)C1(C)c1cccc(Br)c1 (stereo partly drawn) [Example 33, (S)-3-[5-(3-Bromophenyl)-5,6,6-trimethyl-4,4-dioxo-5,6-dihydro-4H-4lambda6-[1,4,3]oxathiazin-2-ylamino]-3-phenyl-propan-1-ol] | 8.10 |
| CC1(C)OC(N[C@@H](CCO)c2ccccc2F)=NS(=O)(=O)C1c1ccc(-c2ccccc2)cc1 (stereo partly drawn) [Example 51, (S)-3-(5-Biphenyl-4-yl-6,6-dimethyl-4,4-dioxo-5,6-dihydro-4H-4lambda6-[1,4,3]oxathiazin-2-ylamino)-3-(2-fluorophenyl)-propan-1-ol] | 7.82 |
| CC1(C)OC(N[C@@H](CCO)c2ccccc2F)=NS(=O)(=O)C1c1ccc(-c2cnc(N3CCNCC3)nc2)cc1 (stereo partly drawn) [Example 169, (S)-3-{6,6-Dimethyl-4,4-dioxo-5-[4-(2-piperazin-1-yl-pyrimidin-5-yl)-phenyl]-5,6-dihydro-4H-4lambda6-[1,4,3]oxathiazin-2-ylamino}-3-(2-fluoro-phenyl)-propan-1-ol] | 8.70 |
| CC1(C)OC(N[C@@H](CCO)c2ccccc2F)=NS(=O)(=O)C1c1ccc(-c2cncnc2)cc1 (stereo partly drawn) [Example 90, (S)-3-[6,6-Dimethyl-4,4-dioxo-5-(4-pyrimidin-5-yl-phenyl)-5,6-dihydro-4H-4lambda6-[1,4,3]oxathiazin-2-ylamino]-3-(2-fluorophenyl)-propan-1-ol] | 8.15 |
| C[C@H](NC1=NS(=O)(=O)C(c2ccc(-c3cccc(C(N)=O)c3)nc2)C(C)(C)O1)c1ccccc1F (stereo partly drawn) [Example 181, 3-(5-{2-[(S)-1-(2-fluorophenyl)-ethylamino]-6,6-dimethyl-4,4-dioxo-5,6-dihydro-4H-4lambda6-[1,4,3]oxathiazin-5-yl}-pyridin-2-yl)-benzamide] | 8.15 |
| Cc1ccc(C2C(C)(C)OC(N[C@@H](CCO)c3ccccc3)=NS2(=O)=O)cc1 (stereo partly drawn) [Example 11, (S)-3-(6,6-Dimethyl-4,4-dioxo-5-p-tolyl-5,6-dihydro-4H-4lambda6-[1,4,3]oxathiazin-2-ylamino)-3-phenyl-propan-1-ol] | 8.05 |
| COc1cccc(C2C(C)(C)OC(NC3CCCCC3)=NS2(=O)=O)c1 (stereo not drawn) [Example 23, Cyclohexyl-[5-(3-methoxy-phenyl)-6,6-dimethyl-4,4-dioxo-5,6-dihydro-4H-4lambda6-[1,4,3]oxathiazin-2-yl]-amine] | 6.94 |
| C[C@H](NC1=NS(=O)(=O)C(C)(c2ccc(-c3ccccc3)cc2)C(C)(C)O1)c1ccccc1F (stereo partly drawn) [Example 55, (5-Biphenyl-4-yl-5,6,6-trimethyl-4,4-dioxo-5,6-dihydro-4H-4lambda6-[1,4,3]oxathiazin-2-yl)-[(S)-1-(2-fluorophenyl)-ethyl]-amine] | 7.55 |
| CC1(C)OC(N[C@@H](CCO)c2cccc(F)c2Cl)=NS(=O)(=O)C1c1ccc(-c2ccccc2)cc1 (stereo partly drawn) [Example 96, (S)-3-(5-Biphenyl-4-yl-6,6-dimethyl-4,4-dioxo-5,6-dihydro-4H-4lambda6-[1,4,3]oxathiazin-2-ylamino)-3-(2-chloro-3-fluorophenyl)-propan-1-ol] | 8.00 |
| CC(=O)c1ccc(C2C(C)(C)OC(N[C@@H](C)c3ccccc3F)=NS2(=O)=O)cc1 (stereo partly drawn) [Example 163, 1-(4-{2-[(S)-1-(2-fluorophenyl)-ethylamino]-6,6-dimethyl-4,4-dioxo-5,6-dihydro-4H-4lambda6-[1,4,3]oxathiazin-5-yl}-phenyl)-ethanone] | 7.82 |
| C[C@H](NC1=NS(=O)(=O)[C@H](c2ccc(-c3cccc(C(N)=O)c3)cc2)C(C)(C)O1)c1ccccc1F [Example 175, 4′-{(R)-2-[(S)-1-(2-fluorophenyl)-ethylamino]-6,6-dimethyl-4,4-dioxo-5,6-dihydro-4H-4lambda6-[1,4,3]oxathiazin-5-yl}-biphenyl-3-carboxamide] | 7.70 |
| CN1CCN(Cc2ccc(C3C(C)(C)OC(N[C@@H](CCO)c4ccccc4F)=NS3(=O)=O)cc2)CC1 (stereo partly drawn) [Example 136, (S)-3-{6,6-Dimethyl-5-[4-(4-methyl-piperazin-1-ylmethyl)-phenyl]-4,4-dioxo-5,6-dihydro-4H-4lambda6-[1,4,3]oxathiazin-2-ylamino}-3-(2-fluoro-phenyl)-propan-1-ol] | 7.20 |
